In ChEMBL document CHEMBL1129774, “Antitumor agents 171. Cytotoxicities of lobatosides B, C, D, and E, cyclic bisdesmosides isolated from Actinostemma lobatum maxim” (1996) one finds GI50 data, which are given here for 4 compounds.

Common to all, as to assay type: functional
One experiment has as its system SK-MEL-28. In words: In vitro cytotoxicity against human melanoma SK-MEL-28 cancer cell line.
In the next experiment the test system is PC-3. In words: In vitro cytotoxicity against human prostate cancer PC-3 cell line.
For another experiment, the system named is MDA-MB-435. In words: In vitro cytotoxicity against human […] MDA-MB-435 cell line.
The subject of another experiment is SF-295. In words: In vitro cytotoxicity against human CNS cancer SF-295 cell line.
A further experiment concerns UO-31. In words: In vitro cytotoxicity against human renal cancer UO-31 cell line.
Another experiment relates to HCC 2998. In words: In vitro cytotoxicity against human colon cancer HCC2998 cell line.
The test system of the next experiment is HL-60. In words: In vitro cytotoxicity against human leukemia HL-60(TB) cancer cell line.
The subject of another experiment is OVCAR-5. In words: In vitro cytotoxicity against human ovarian cancer OVCAR-5 cell line.
A further experiment deals with A549. In words: In vitro cytotoxicity against human Non-small cell lung cancer A549/ATCC cell line.
For the next experiment, the system named is SK-MEL-5. In words: In vitro cytotoxicity against human melanoma SK-MEL-5 cancer cell line.

“And” between values parts separate entries of the source, which are not always exact repeats. Equal entries are not always repeated.

The GI50 is the concentration that inhibits growth by half. High values mean lower sensitivity of the cells, low ones greater sensitivity of the cells. As for `C[C@@H]1O[C@H]2O[C@H]3[C@@H](OC[C@H](O)[C@@H]3O)OC(=O)[C@@]34CCC5C(=CC[C@@H]6[C@@]7(C)C[C@H](O)[C@H](O[C@@H]8O[C@H](CO)[C@@H](O)[C@H](O)[C@H]8O[C@@H]8O[C@H](CO)[C@H](O)[C@H](O)[C@H]8OC(=O)CC(C)(O)CC(=O)O[C@@H]1[C@@H](O[C@@H]1O[C@H](CO)[C@@H](O)[C@H](O)[C@H]1O)[C@H]2O)C(C)(C)[C@@H]7CC[C@@]56C)[C@@H]3CC(C)(C)CC4` (stereo partly specified), the GI50 in the experiment on SK-MEL-28 is 1290 nM; in the experiment with PC-3 it was 1950 nM; in the experiment on MDA-MB-435, 1450 nM; in the experiment with SF-295, 1510 nM; in the experiment on UO-31, 1620 nM; in the experiment on HCC 2998, 1410 nM and 360 nM. In addition, the concentration for 50% growth inhibition (GI50) in the experiment on HL-60 stood at 1450 nM; with OVCAR-5, 2000 nM; in the experiment with A549 it was 140 nM; in the experiment on SK-MEL-5, 140 nM.

Turning to `C[C@@H]1O[C@H]2O[C@H]3[C@@H](OC[C@H](O)[C@@H]3O)OC(=O)[C@@]34CCC5C(=CC[C@@H]6[C@@]7(C)C[C@H](O)[C@H](O[C@@H]8O[C@H](CO)[C@@H](O)[C@H](O)[C@H]8O[C@H]8OC[C@H](OC(=O)CC(C)(O)CC(=O)O[C@@H]1[C@@H](O[C@@H]1O[C@H](CO)[C@@H](O)[C@H](O)[C@H]1O)[C@H]2O)C(O)[C@H]8O)C(C)(C)[C@@H]7CC[C@@]56C)[C@@H]3CC(C)(C)CC4` (stereo partly specified), the GI50 is 1940 nM with SK-MEL-28; 7940 nM in the experiment with PC-3; 2450 nM in the experiment on MDA-MB-435; 4070 nM in the experiment with SF-295; 4470 nM in the experiment on UO-31; 2450 nM and 9330 nM in the experiment with HCC 2998. Besides, the 50% growth inhibitory concentration (GI50) with HL-60 is 1820 nM; in the experiment on OVCAR-5 it was 8910 nM; in the experiment on A549 it was 3890 nM; in the experiment on SK-MEL-5 it was 11400 nM.

Take `C[C@@H]1O[C@H]2O[C@H]3[C@@H](OC[C@H](O)[C@@H]3O)OC(=O)[C@@]34CC[C@@H]5C(=CC[C@H]6[C@@]5(C)CC[C@H]5C(C)(C)[C@@H](O[C@@H]7O[C@H](CO)[C@@H](O)[C@H](O)[C@H]7O[C@H]7OC[C@H](OC(=O)CC(C)(O)CC(=O)O[C@@H]1[C@@H](O)[C@H]2O)[C@H](O)[C@H]7O)[C@@H](O)C[C@]65C)[C@@H]3CC(C)(C)CC4` (stereo partly specified): the 50% growth inhibitory concentration (GI50) was 1940 nM with SK-MEL-28; 2190 nM with PC-3; 5890 nM in the experiment on MDA-MB-435; 3390 nM with SF-295; 6030 nM with UO-31; 2400 nM and 8910 nM in the experiment with HCC 2998. Moreover, the 50% growth inhibitory concentration (GI50) is 1780 nM with HL-60, 1320 nM in the experiment with OVCAR-5, 2240 nM in the experiment with A549 and 4170 nM with SK-MEL-5.

Turning to `C[C@@H]1O[C@H]2OC3[C@@H](OC[C@H](O)[C@@H]3O)OC(=O)[C@@]34CC[C@@H]5C(=CC[C@H]6[C@@]5(C)CC[C@H]5C(C)(C)[C@@H](O[C@@H]7O[C@H](CO)[C@@H](O)[C@H](O)[C@H]7O[C@@H]7O[C@H](CO)[C@@H](O)[C@H](O)[C@H]7OC(=O)CC(C)(O)CC(=O)O[C@@H]1[C@@H](O)[C@H]2O)[C@@H](O)C[C@]65C)[C@@H]3CC(C)(C)CC4` (stereo partly specified), the GI50 with SK-MEL-28 is 1510 nM; in the experiment on PC-3, 1380 nM; in the experiment on MDA-MB-435, 1580 nM; in the experiment with SF-295 it was 1780 nM; in the experiment on UO-31, 1230 nM; in the experiment with HCC 2998, 1150 nM. The 50% growth inhibitory concentration (GI50) with HCC 2998 (Homo sapiens, HCC 2998) is 1320 nM; with HL-60, 1410 nM; in the experiment with OVCAR-5 it was 1620 nM; in the experiment on A549, 1320 nM; in the experiment on SK-MEL-5 it was 1200 nM.
